According to article PMC7782168, “Synthesis, telomerase inhibitory and anticancer activity of new 2-phenyl-4H-chromone derivatives containing 1,3,4-oxadiazole moiety” (Journal of Enzyme Inhibition and Medicinal Chemistry, 2020):

Key:
[1] = molecular target: T1, telomerase (Homo sapiens, UniProt O14746); test: Telomerase activity assay using MGC-803 cells extract; assay type: biochemical; conditions: mean ± SD
T1 construct: assayed for telomerase activity using MGC-803 cells extract; endogenous in cells; host or cells: MGC-803 cell extract
T1 sequence (O14746 whole entry): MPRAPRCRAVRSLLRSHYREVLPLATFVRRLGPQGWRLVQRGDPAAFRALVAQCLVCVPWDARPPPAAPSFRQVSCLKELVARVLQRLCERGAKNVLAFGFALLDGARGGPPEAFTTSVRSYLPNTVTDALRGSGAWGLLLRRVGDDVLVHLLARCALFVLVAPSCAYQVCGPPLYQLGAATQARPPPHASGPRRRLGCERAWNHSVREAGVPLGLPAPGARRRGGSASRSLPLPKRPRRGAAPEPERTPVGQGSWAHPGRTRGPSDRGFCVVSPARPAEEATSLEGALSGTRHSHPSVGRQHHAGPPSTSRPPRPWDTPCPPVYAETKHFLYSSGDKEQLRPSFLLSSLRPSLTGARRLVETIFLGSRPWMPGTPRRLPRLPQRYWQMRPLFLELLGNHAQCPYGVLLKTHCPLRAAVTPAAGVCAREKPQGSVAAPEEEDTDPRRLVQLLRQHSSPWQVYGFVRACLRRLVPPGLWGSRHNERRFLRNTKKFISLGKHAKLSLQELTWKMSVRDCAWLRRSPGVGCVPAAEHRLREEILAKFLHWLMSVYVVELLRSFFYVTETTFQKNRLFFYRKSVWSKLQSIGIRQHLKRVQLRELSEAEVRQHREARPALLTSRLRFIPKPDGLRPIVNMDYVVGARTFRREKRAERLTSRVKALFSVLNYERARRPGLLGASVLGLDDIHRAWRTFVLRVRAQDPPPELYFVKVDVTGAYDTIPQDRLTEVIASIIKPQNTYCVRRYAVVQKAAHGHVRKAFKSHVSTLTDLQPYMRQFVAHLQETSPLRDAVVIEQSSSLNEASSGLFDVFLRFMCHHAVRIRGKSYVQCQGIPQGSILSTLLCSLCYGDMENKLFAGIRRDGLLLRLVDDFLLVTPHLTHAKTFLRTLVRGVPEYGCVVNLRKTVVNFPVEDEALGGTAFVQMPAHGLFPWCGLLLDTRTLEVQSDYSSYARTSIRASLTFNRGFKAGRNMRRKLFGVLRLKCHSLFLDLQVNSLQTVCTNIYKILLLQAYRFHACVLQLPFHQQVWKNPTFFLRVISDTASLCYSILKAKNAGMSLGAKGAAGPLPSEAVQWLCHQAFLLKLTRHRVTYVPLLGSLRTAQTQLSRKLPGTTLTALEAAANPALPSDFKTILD
T1 sequence (O60832 2-514 partner limits assumed): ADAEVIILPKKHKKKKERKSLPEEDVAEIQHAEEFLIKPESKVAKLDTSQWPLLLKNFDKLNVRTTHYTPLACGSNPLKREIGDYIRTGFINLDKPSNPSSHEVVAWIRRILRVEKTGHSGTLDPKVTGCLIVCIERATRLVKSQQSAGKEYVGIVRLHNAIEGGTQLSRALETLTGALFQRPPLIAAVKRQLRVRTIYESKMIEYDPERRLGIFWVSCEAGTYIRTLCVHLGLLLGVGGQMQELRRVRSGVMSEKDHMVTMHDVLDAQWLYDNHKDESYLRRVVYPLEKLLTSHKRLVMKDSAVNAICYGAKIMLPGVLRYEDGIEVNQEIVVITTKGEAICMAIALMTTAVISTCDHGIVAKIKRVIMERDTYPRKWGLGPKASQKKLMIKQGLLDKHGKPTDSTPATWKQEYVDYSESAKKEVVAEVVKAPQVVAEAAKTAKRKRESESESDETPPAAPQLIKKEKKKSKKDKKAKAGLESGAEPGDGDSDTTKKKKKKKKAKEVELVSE
T1 sequence (Q9NPE3 whole entry partner): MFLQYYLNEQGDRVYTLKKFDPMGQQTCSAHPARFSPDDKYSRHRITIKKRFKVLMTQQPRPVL
T1 sequence (Q9NX24 whole entry partner): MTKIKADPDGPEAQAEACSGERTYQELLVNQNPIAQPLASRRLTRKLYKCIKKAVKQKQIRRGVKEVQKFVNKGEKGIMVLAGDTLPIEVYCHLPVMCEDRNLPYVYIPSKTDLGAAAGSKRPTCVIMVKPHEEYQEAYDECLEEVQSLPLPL
T1 sequence (Q9NY12 whole entry partner): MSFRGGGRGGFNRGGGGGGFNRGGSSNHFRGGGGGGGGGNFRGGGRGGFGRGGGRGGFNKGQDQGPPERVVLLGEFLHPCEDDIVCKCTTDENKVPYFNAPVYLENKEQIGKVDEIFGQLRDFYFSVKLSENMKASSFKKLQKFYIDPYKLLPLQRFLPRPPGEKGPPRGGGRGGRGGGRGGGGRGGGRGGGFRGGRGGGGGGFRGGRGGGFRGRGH

Row | Compound | IC50 [1] [µM] | melting point [°C]
1 | COc1cc(OC)c2c(=O)c(OCC(=O)Nc3nnc(-c4ccccc4F)o3)c(-c3cc(OC)c(OC)c(OC)c3)oc2c1 [A4, 2–(5,7-dimethoxy-4-oxo-2–(3,4,5-trimethoxyphenyl)-4H-chromen-3-yloxy)-N-(5–(2-fluorophenyl)-1,3,4-oxadiazol-2-yl)acetamide] | 12.1 ± 2.01 | 213 to 215
2 | COc1cc(OC)c2c(=O)c(OCC(=O)Nc3nnc(-c4ccccc4Cl)o3)c(-c3cc(OC)c(OC)c(OC)c3)oc2c1 [A7, N-(5–(2-chlorophenyl)-1,3,4-oxadiazol-2-yl)-2–(5,7-dimethoxy-4-oxo-2–(3,4,5-trimethoxyphenyl)-4H-chromen-3-yloxy)acetamide] | 12.5 ± 1.88 | 201 to 203
3 | COc1cc(OC)c2c(=O)c(OCC(=O)Nc3nnc(-c4ccc(Br)cc4)o3)c(-c3cc(OC)c(OC)c(OC)c3)oc2c1 [A8, N-(5–(4-bromophenyl)-1,3,4-oxadiazol-2-yl)-2–(5,7-dimethoxy-4-oxo-2–(3,4,5-trimethoxyphenyl)-4H-chromen-3-yloxy)acetamide] | 1.22 ± 0.29 | 234 to 236
4 | COc1cc(OC)c2c(=O)c(OCC(=O)Nc3nnc(-c4ccccc4Br)o3)c(-c3cc(OC)c(OC)c(OC)c3)oc2c1 [A10, N-(5–(2-bromophenyl)-1,3,4-oxadiazol-2-yl)-2–(5,7-dimethoxy-4-oxo-2–(3,4,5-trimethoxyphenyl)-4H-chromen-3-yloxy)acetamide] | 21 ± 4.09 | 199 to 201
5 | COc1cc(OC)c2c(=O)c(OCC(=O)Nc3nnc(-c4ccccc4[N+](=O)[O-])o3)c(-c3cc(OC)c(OC)c(OC)c3)oc2c1 [A15, 2–(5,7-dimethoxy-4-oxo-2–(3,4,5-trimethoxyphenyl)-4H-chromen-3-yloxy)-N-(5–(2-nitrophenyl)-1,3,4-oxadiazol-2-yl)acetamide] | 6.98 ± 0.96 | 204 to 206
6 | COc1cc(OC)c2c(=O)c(OCC(=O)Nc3nnc(-c4ccccc4C(F)(F)F)o3)c(-c3cc(OC)c(OC)c(OC)c3)oc2c1 [A18, 2–(5,7-dimethoxy-4-oxo-2–(3,4,5-trimethoxyphenyl)-4H-chromen-3-yloxy)-N-(5–(2-(trifluoromethyl)phenyl)-1,3,4-oxadiazol-2-yl)acetamide] | 1.07 ± 0.2 | 191 to 193
7 | COc1cc(OC)c2c(=O)c(OCC(=O)Nc3nnc(-c4ccc(OC(F)(F)F)cc4)o3)c(-c3cc(OC)c(OC)c(OC)c3)oc2c1 [A19, 2–(5,7-dimethoxy-4-oxo-2–(3,4,5-trimethoxyphenyl)-4H-chromen-3-yloxy)-N-(5–(4-(trifluoromethoxy)phenyl)-1,3,4-oxadiazol-2-yl)acetamide] | 1.21 ± 0.29 | 230 to 232
8 | COc1cc(OC)c2c(=O)c(OCC(=O)Nc3nnc(-c4ccccc4OC(F)(F)F)o3)c(-c3cc(OC)c(OC)c(OC)c3)oc2c1 [A21, 2–(5,7-dimethoxy-4-oxo-2–(3,4,5-trimethoxyphenyl)-4H-chromen-3-yloxy)-N-(5–(2-(trifluoromethoxy)phenyl)-1,3,4-oxadiazol-2-yl)acetamide] | 5.11 ± 1.1 | 202 to 204
9 | COc1cc(OC)c2c(=O)c(OCC(=O)Nc3nnc(-c4ccc(F)c(Cl)c4)o3)c(-c3cc(OC)c(OC)c(OC)c3)oc2c1 [A24, N-(5–(3-chloro-4-fluorophenyl)-1,3,4-oxadiazol-2-yl)-2–(5,7-dimethoxy-4-oxo-2–(3,4,5-trimethoxyphenyl)-4H-chromen-3-yloxy)acetamide] | 4.01 ± 0.47 | 228 to 230
10 | COc1cc(OC)c2c(=O)c(OCC(=O)Nc3nnc(-c4ccc(Cl)c(Cl)c4)o3)c(-c3cc(OC)c(OC)c(OC)c3)oc2c1 [A25, N-(5–(3,4-dichlorophenyl)-1,3,4-oxadiazol-2-yl)-2–(5,7-dimethoxy-4-oxo-2–(3,4,5-trimethoxyphenyl)-4H-chromen-3-yloxy)acetamide] | > 60 | 222 to 224
11 | COc1cc(OC)cc(-c2nnc(NC(=O)COc3c(-c4cc(OC)c(OC)c(OC)c4)oc4cc(OC)cc(OC)c4c3=O)o2)c1 [A26, 2–(5,7-dimethoxy-4-oxo-2–(3,4,5-trimethoxyphenyl)-4H-chromen-3-yloxy)-N-(5–(3,5-dimethoxyphenyl)-1,3,4-oxadiazol-2-yl)acetamide] | 1.06 ± 0.11 | 198 to 200
12 | COc1cc(OC)c2c(=O)c(OCC(=O)Nc3nnc(-c4ccc5c(c4)OCCO5)o3)c(-c3cc(OC)c(OC)c(OC)c3)oc2c1 [A29, N-(5–(2,3-dihydrobenzo[b][1, 4]dioxin-6-yl)-1,3,4-oxadiazol-2-yl)-2–(5,7-dimethoxy-4-oxo-2–(3,4,5-trimethoxyphenyl)-4H-chromen-3-yloxy)acetamide] | > 60 | 231 to 233
13 | COc1cc(OC)c2c(=O)c(OCC(=O)Nc3nnc(-c4ccco4)o3)c(-c3cc(OC)c(OC)c(OC)c3)oc2c1 [A31, 2–(5,7-dimethoxy-4-oxo-2–(3,4,5-trimethoxyphenyl)-4H-chromen-3-yloxy)-N-(5-(furan-2-yl)-1,3,4-oxadiazol-2-yl)acetamide] | 2.75 ± 0.19 | 240 to 242

Further lines, results first:

Row | IC50 [1] [µM] | melting point [°C] | Compound
14 | 21.1 ± 2.28 | 222 to 224 | COc1cc(OC)c2c(=O)c(OCC(=O)Nc3nnc(-c4ccccc4)o3)c(-c3cc(OC)c(OC)c(OC)c3)oc2c1 [A1, 2–(5,7-dimethoxy-4-oxo-2–(3,4,5-trimethoxyphenyl)-4H-chromen-3-yloxy)-N-(5-phenyl-1,3,4-oxadiazol-2-yl)acetamide]
15 | 2.57 ± 0.5 | 217 to 219 | COc1cc(OC)c2c(=O)c(OCC(=O)Nc3nnc(-c4cccc(F)c4)o3)c(-c3cc(OC)c(OC)c(OC)c3)oc2c1 [A3, 2–(5,7-dimethoxy-4-oxo-2–(3,4,5-trimethoxyphenyl)-4H-chromen-3-yloxy)-N-(5–(3-fluorophenyl)-1,3,4-oxadiazol-2-yl)acetamide]
16 | 7.35 ± 1.01 | 206 to 208 | COc1cc(OC)c2c(=O)c(OCC(=O)Nc3nnc(-c4cccc(Cl)c4)o3)c(-c3cc(OC)c(OC)c(OC)c3)oc2c1 [A6, N-(5–(3-chlorophenyl)-1,3,4-oxadiazol-2-yl)-2–(5,7-dimethoxy-4-oxo-2–(3,4,5-trimethoxyphenyl)-4H-chromen-3-yloxy)acetamide]
17 | 2.01 ± 0.39 | 202 to 204 | COc1cc(OC)c2c(=O)c(OCC(=O)Nc3nnc(-c4cccc(Br)c4)o3)c(-c3cc(OC)c(OC)c(OC)c3)oc2c1 [A9, N-(5–(3-bromophenyl)-1,3,4-oxadiazol-2-yl)-2–(5,7-dimethoxy-4-oxo-2–(3,4,5-trimethoxyphenyl)-4H-chromen-3-yloxy)acetamide]
18 | 2.35 ± 0.48 | 225 to 227 | COc1cc(OC)c2c(=O)c(OCC(=O)Nc3nnc(-c4ccc(C)cc4)o3)c(-c3cc(OC)c(OC)c(OC)c3)oc2c1 [A11, 2–(5,7-dimethoxy-4-oxo-2–(3,4,5-trimethoxyphenyl)-4H-chromen-3-yloxy)-N-(5-p-tolyl-1,3,4-oxadiazol-2-yl)acetamide]
19 | 15.3 ± 2.85 | 197 to 199 | COc1cc(OC)c2c(=O)c(OCC(=O)Nc3nnc(-c4cccc(C)c4)o3)c(-c3cc(OC)c(OC)c(OC)c3)oc2c1 [A12, 2–(5,7-dimethoxy-4-oxo-2–(3,4,5-trimethoxyphenyl)-4H-chromen-3-yloxy)-N-(5-m-tolyl-1,3,4-oxadiazol-2-yl)acetamide]
20 | 25.1 ± 2.01 | 205 to 207 | COc1cc(OC)c2c(=O)c(OCC(=O)Nc3nnc(-c4ccccc4C)o3)c(-c3cc(OC)c(OC)c(OC)c3)oc2c1 [A13, 2–(5,7-dimethoxy-4-oxo-2–(3,4,5-trimethoxyphenyl)-4H-chromen-3-yloxy)-N-(5-o-tolyl-1,3,4-oxadiazol-2-yl)acetamide]
21 | 4.11 ± 0.6 | 233 to 235 | COc1cc(OC)c2c(=O)c(OCC(=O)Nc3nnc(-c4cccc([N+](=O)[O-])c4)o3)c(-c3cc(OC)c(OC)c(OC)c3)oc2c1 [A14, 2–(5,7-dimethoxy-4-oxo-2–(3,4,5-trimethoxyphenyl)-4H-chromen-3-yloxy)-N-(5–(3-nitrophenyl)-1,3,4-oxadiazol-2-yl)acetamide]
22 | 4.11 ± 0.62 | 220 to 222 | COc1cc(OC)c2c(=O)c(OCC(=O)Nc3nnc(-c4cccc(C(F)(F)F)c4)o3)c(-c3cc(OC)c(OC)c(OC)c3)oc2c1 [A17, 2–(5,7-dimethoxy-4-oxo-2–(3,4,5-trimethoxyphenyl)-4H-chromen-3-yloxy)-N-(5–(3-(trifluoromethyl)phenyl)-1,3,4-oxadiazol-2-yl)acetamide]
23 | 9.11 ± 1.88 | 239 to 241 | COc1ccc(-c2nnc(NC(=O)COc3c(-c4cc(OC)c(OC)c(OC)c4)oc4cc(OC)cc(OC)c4c3=O)o2)cc1 [A22, 2–(5,7-dimethoxy-4-oxo-2–(3,4,5-trimethoxyphenyl)-4H-chromen-3-yloxy)-N-(5–(4-methoxyphenyl)-1,3,4-oxadiazol-2-yl)acetamide]
24 | 1.9 ± 0.42 | 208 to 210 | COc1cccc(-c2nnc(NC(=O)COc3c(-c4cc(OC)c(OC)c(OC)c4)oc4cc(OC)cc(OC)c4c3=O)o2)c1 [A23, 2–(5,7-dimethoxy-4-oxo-2–(3,4,5-trimethoxyphenyl)-4H-chromen-3-yloxy)-N-(5–(3-methoxyphenyl)-1,3,4-oxadiazol-2-yl)acetamide]
25 | 6.17 ± 0.99 | 238 to 240 | COc1cc(OC)c2c(=O)c(OCC(=O)Nc3nnc(-c4cccc5ccccc45)o3)c(-c3cc(OC)c(OC)c(OC)c3)oc2c1 [A28, 2–(5,7-dimethoxy-4-oxo-2–(3,4,5-trimethoxyphenyl)-4H-chromen-3-yloxy)-N-(5-(naphthalen-1-yl)-1,3,4-oxadiazol-2-yl)acetamide]
26 | > 60 | 188 to 190 | COc1cc(OC)c2c(=O)c(OCC(=O)Nc3nnc(-c4cccc(OCc5ccccc5)c4)o3)c(-c3cc(OC)c(OC)c(OC)c3)oc2c1 [A30, N-(5–(3-(benzyloxy)phenyl)-1,3,4-oxadiazol-2-yl)-2–(5,7-dimethoxy-4-oxo-2–(3,4,5-trimethoxyphenyl)-4H-chromen-3-yloxy)acetamide]
